Experimental data as given in PubChem BioAssay (NCI).
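48-hour exposure; five concentrations; linearly interpolated endpoints. Here, GI50 denotes the concentration required for 50% inhibition of growth. At the TGI there is no net growth.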 Where a SMILES comes first, the peptide text is derived from it. [ ]: non-standard residue; d: D form. The star is where a group is joined. Nle = CCCC[C@H](N)C(=O)O; Cbz = O=C(OCc1ccccc1)*

How the values were obtained:
Test in all cases: NCI tumour cell line growth inhibition, 48 h
T-47D breast = tested on: T-47D breast
SF-268 CNS = tested on: SF-268 CNS
BT-549 breast = tested on: BT-549 breast
786-0 renal = tested on: 786-0 renal
OVCAR-3 ovarian = tested on: OVCAR-3 ovarian
SR leukemia = tested on: SR leukemia
SNB-19 CNS = tested on: SNB-19 CNS
HCT-15 colon = tested on: HCT-15 colon
TK-10 renal = tested on: TK-10 renal
MOLT-4 leukemia = tested on: MOLT-4 leukemia
OVCAR-5 ovarian = tested on: OVCAR-5 ovarian
IGROV1 ovarian = tested on: IGROV1 ovarian
UACC-257 melanoma = tested on: UACC-257 melanoma
CCRF-CEM leukemia = tested on: CCRF-CEM leukemia
K-562 leukemia = tested on: K-562 leukemia
A498 renal = tested on: A498 renal
MDA-MB-231 breast = tested on: MDA-MB-231 breast
UO-31 renal = tested on: UO-31 renal
EKVX NSCLC = tested on: EKVX NSCLC
SK-MEL-28 melanoma = tested on: SK-MEL-28 melanoma
SK-MEL-5 melanoma = tested on: SK-MEL-5 melanoma
ACHN renal = tested on: ACHN renal
RPMI-8226 leukemia = tested on: RPMI-8226 leukemia
SF-295 CNS = tested on: SF-295 CNS
CAKI-1 renal = tested on: CAKI-1 renal
DU-145 prostate = tested on: DU-145 prostate
COLO 205 colon = tested on: COLO 205 colon
RXF 393 renal = tested on: RXF 393 renal
SK-MEL-2 melanoma = tested on: SK-MEL-2 melanoma
HCC-2998 colon = tested on: HCC-2998 colon
NCI-H522 lung = tested on: NCI-H522 lung
OVCAR-8 ovarian = tested on: OVCAR-8 ovarian
HOP-62 NSCLC = tested on: HOP-62 NSCLC
SF-539 CNS = tested on: SF-539 CNS
NCI-H226 lung = tested on: NCI-H226 lung
U251 CNS = tested on: U251 CNS
HOP-92 NSCLC = tested on: HOP-92 NSCLC
M14 melanoma = tested on: M14 melanoma
SW-620 colon = tested on: SW-620 colon
HCT-116 colon = tested on: HCT-116 colon
NCI/ADR-RES ovarian = tested on: NCI/ADR-RES ovarian
HT29 colon = tested on: HT29 colon
SK-OV-3 ovarian = tested on: SK-OV-3 ovarian
MCF7 breast = tested on: MCF7 breast
LOX IMVI melanoma = tested on: LOX IMVI melanoma
PC-3 prostate = tested on: PC-3 prostate
HL-60(TB) leukemia = tested on: HL-60(TB) leukemia
KM12 colon = tested on: KM12 colon
HS 578T breast = tested on: HS 578T breast
MALME-3M melanoma = tested on: MALME-3M melanoma
OVCAR-4 ovarian = tested on: OVCAR-4 ovarian
NCI-H460 lung = tested on: NCI-H460 lung
MDA-MB-435 = tested on: MDA-MB-435
NCI-H23 lung = tested on: NCI-H23 lung
UACC-62 melanoma = tested on: UACC-62 melanoma
A549 NSCLC = tested on: A549 NSCLC

Structure (SMILES): CCCC[C@@H](C=O)NC(=O)[C@H](CC(C)C)NC(=O)[C@H](CC(C)C)NC(=O)OCc1ccccc1 (Cbz-Leu-Leu-[Nle]-aldehyde)
- GI50 (T-47D breast): 688 nM
- GI50 (SF-268 CNS): 406 nM
- TGI (SF-268 CNS): 4170 nM
- GI50 (BT-549 breast): 409 nM
- TGI (BT-549 breast): 2590 nM
- GI50 (786-0 renal): 243 nM
- TGI (786-0 renal): 1410 nM
- GI50 (OVCAR-3 ovarian): 361 nM
- TGI (OVCAR-3 ovarian): 4660 nM
- GI50 (SR leukemia): 279 nM
- TGI (SR leukemia): 1360 nM
- GI50 (SNB-19 CNS): 5370 nM
- TGI (SNB-19 CNS): > 21200 nM
- GI50 (HCT-15 colon): 1270 nM
- TGI (HCT-15 colon): 4940 nM
- GI50 (TK-10 renal): 332 nM
- GI50 (MOLT-4 leukemia): 517 nM
- TGI (MOLT-4 leukemia): > 100000 nM
- GI50 (OVCAR-5 ovarian): 930 nM
- TGI (OVCAR-5 ovarian): 2840 nM
- GI50 (IGROV1 ovarian): 308 nM
- TGI (IGROV1 ovarian): 4390 nM
- GI50 (UACC-257 melanoma): 395 nM
- TGI (UACC-257 melanoma): 1960 nM
- GI50 (CCRF-CEM leukemia): 440 nM
- TGI (CCRF-CEM leukemia): > 100000 nM
- GI50 (K-562 leukemia): 988 nM
- TGI (K-562 leukemia): > 100000 nM
- GI50 (A498 renal): 305 nM
- TGI (A498 renal): 964 nM
- GI50 (MDA-MB-231 breast): 444 nM
- TGI (MDA-MB-231 breast): 1910 nM
- GI50 (UO-31 renal): 398 nM
- TGI (UO-31 renal): 1670 nM
- GI50 (EKVX NSCLC): 1060 nM
- TGI (EKVX NSCLC): > 59000 nM
- GI50 (SK-MEL-28 melanoma): 430 nM
- TGI (SK-MEL-28 melanoma): 1610 nM
- GI50 (SK-MEL-5 melanoma): 432 nM
- TGI (SK-MEL-5 melanoma): 1880 nM
- GI50 (ACHN renal): 366 nM
- TGI (ACHN renal): 2430 nM
- GI50 (RPMI-8226 leukemia): 359 nM
- GI50 (SF-295 CNS): 486 nM
- TGI (SF-295 CNS): 5710 nM
- GI50 (CAKI-1 renal): 441 nM
- TGI (CAKI-1 renal): 2150 nM
- GI50 (DU-145 prostate): 617 nM
- TGI (DU-145 prostate): 2460 nM
- GI50 (COLO 205 colon): 979 nM
- TGI (COLO 205 colon): 6200 nM
- GI50 (RXF 393 renal): 144 nM
- TGI (RXF 393 renal): 316 nM
- GI50 (SK-MEL-2 melanoma): 791 nM
- TGI (SK-MEL-2 melanoma): 2840 nM
- GI50 (HCC-2998 colon): 593 nM
- TGI (HCC-2998 colon): 1960 nM
- GI50 (NCI-H522 lung): 662 nM
- TGI (NCI-H522 lung): 5820 nM
- GI50 (OVCAR-8 ovarian): 1410 nM
- TGI (OVCAR-8 ovarian): > 37500 nM
- GI50 (HOP-62 NSCLC): 415 nM
- TGI (HOP-62 NSCLC): 1550 nM
- GI50 (SF-539 CNS): 268 nM
- TGI (SF-539 CNS): 2530 nM
- GI50 (NCI-H226 lung): 175 nM
- TGI (NCI-H226 lung): 343 nM
- GI50 (U251 CNS): 570 nM
- TGI (U251 CNS): 2120 nM
- GI50 (HOP-92 NSCLC): 2090 nM
- TGI (HOP-92 NSCLC): 6220 nM
- GI50 (M14 melanoma): 244 nM
- TGI (M14 melanoma): 603 nM
- GI50 (SW-620 colon): 298 nM
- TGI (SW-620 colon): 2500 nM
- GI50 (HCT-116 colon): 173 nM
- TGI (HCT-116 colon): 349 nM
- GI50 (NCI/ADR-RES ovarian): 3960 nM
- TGI (NCI/ADR-RES ovarian): > 32600 nM
- GI50 (HT29 colon): 349 nM
- TGI (HT29 colon): > 34000 nM
- GI50 (SK-OV-3 ovarian): 1310 nM
- TGI (SK-OV-3 ovarian): > 71500 nM
- GI50 (MCF7 breast): 546 nM
- TGI (MCF7 breast): 20700 nM
- GI50 (LOX IMVI melanoma): 226 nM
- TGI (LOX IMVI melanoma): 537 nM
- GI50 (PC-3 prostate): 2370 nM
- TGI (PC-3 prostate): > 21100 nM
- GI50 (HL-60(TB) leukemia): 1010 nM
- TGI (HL-60(TB) leukemia): > 100000 nM
- GI50 (KM12 colon): 504 nM
- GI50 (HS 578T breast): 308 nM
- TGI (HS 578T breast): 4180 nM
- GI50 (MALME-3M melanoma): 570 nM
- TGI (MALME-3M melanoma): 4870 nM
- GI50 (OVCAR-4 ovarian): 1070 nM
- TGI (OVCAR-4 ovarian): > 81000 nM
- GI50 (NCI-H460 lung): 1570 nM
- TGI (NCI-H460 lung): 6280 nM
- GI50 (MDA-MB-435): 212 nM
- TGI (MDA-MB-435): 469 nM
- GI50 (NCI-H23 lung): 380 nM
- TGI (NCI-H23 lung): 1770 nM
- GI50 (UACC-62 melanoma): 403 nM
- TGI (UACC-62 melanoma): 1510 nM
- GI50 (A549 NSCLC): 663 nM
- TGI (A549 NSCLC): 12200 nM
